What all share (assay type): biochemical
For experiment [1], the target named is T1, acetylcholinesterase (AChE) (Electrophorus electricus, UniProt O42275). Briefly: electrochemical (DPV/EIS/CV) inhibition of immobilized AChE, acetylthiocholine substrate.
For experiment [2], the target named is T1, acetylcholinesterase (AChE). Briefly: electrochemical detection of thiocholine from hydrolysis by immobilized AChE.
Experiment [3] has the same target. The experiment in a line: DPV peak current suppression with immobilized AChE ([…] at […]).

The values that follow come from article PMC12467903, “A Sensitive Electrochemical Cholinesterase-Inhibiting Biosensor for Organophosphorus Pesticides Based on Ti3C2TX MXene Quantum Dots” (Biosensors, 2025).

Molecules are shown by their SMILES.

T1 sequence (O42275 24-633): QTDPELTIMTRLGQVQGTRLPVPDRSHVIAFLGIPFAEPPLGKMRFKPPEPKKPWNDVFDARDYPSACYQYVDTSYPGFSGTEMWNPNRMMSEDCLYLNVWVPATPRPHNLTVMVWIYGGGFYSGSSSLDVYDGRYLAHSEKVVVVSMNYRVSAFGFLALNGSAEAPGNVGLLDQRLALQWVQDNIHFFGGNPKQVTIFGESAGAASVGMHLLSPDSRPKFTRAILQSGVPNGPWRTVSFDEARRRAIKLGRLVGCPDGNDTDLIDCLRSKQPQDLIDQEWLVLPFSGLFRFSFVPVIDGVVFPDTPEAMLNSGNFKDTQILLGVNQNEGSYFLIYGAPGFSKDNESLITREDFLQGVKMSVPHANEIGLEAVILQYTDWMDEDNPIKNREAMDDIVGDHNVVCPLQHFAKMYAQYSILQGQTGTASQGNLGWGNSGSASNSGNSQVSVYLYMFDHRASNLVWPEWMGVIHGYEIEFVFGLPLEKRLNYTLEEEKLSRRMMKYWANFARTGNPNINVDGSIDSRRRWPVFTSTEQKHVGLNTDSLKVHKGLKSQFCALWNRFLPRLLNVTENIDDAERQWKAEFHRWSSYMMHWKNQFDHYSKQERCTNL

A word on the Ki: it is the equilibrium dissociation constant of an inhibitor or competing ligand from its target. The low end stands for tighter binding, the high end for weaker binding. In experiment [1], `CCOP(=S)(OCC)Oc1nc(Cl)c(Cl)cc1Cl` [CPS, chlorpyrifos] displayed a Ki of 62 nM.
For the molecule `CC(=O)SCC[N+](C)(C)C` [ACTI, acetylthiocholine iodide], in experiment [2], the “electrochemical detection of thiocholine from hydrolysis by immobilized AChE” value is reported as “In the absence of OP, AChE efficiently hydrolyzed ACTI into electroactive thiocholine (TCh)”.
For `COP(=O)(NC(C)=O)SC` (stereo not drawn) [ACE, acephate], in experiment [3], the “percent DPV peak current suppression” value is given as 37% at 2 nM.
